Assay results as given in the supplement of paper PMC10307832.

Each cell line was assayed with Cc1ccccc1C(C(=O)NC1CCCCC1)N(C(=O)Cn1ccnc1C)c1cccc(F)c1 [IDH-C35] + CC(C)C[C@H](NC(=O)[C@H](Cc1ccccc1)NC(=O)c1cnccn1)B(O)O [Bortezomib] (partner 0.002 µM) (assay: relative viability (nuclei count vs DMSO), 5 days (fraction); higher = more cells survive). Settings: first compound 0.8 µM.
Method in brief: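 Relative viability divides the nuclei count in treated wells by that in vehicle wells. Lung cancer cell lines were seeded in 1536-well plates, dosed by pin tool the next day, and fixed and stained after 5 days in one step with final 0.05% Triton X-100, 1% formaldehyde and 1 ug/ml Hoechst. Dosing was a single drug or a fixed anchor-drug dose plus five library-drug doses (not always all listed) in √10 steps, and values are medians of duplicate plates imaged at 4×.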

Cell Line	relative viability
NCI-H2009	1.04
A-427	1.01
NCI-H441	0.617
NCI-H661	0.837
NCI-H1734	0.85
NCI-H460	1.08
NCI-H2347	0.929
SK-LU-1	1.25
201T	1.08
NCI-H1915	0.963
HCC-827	1.07
LXF-289	0.941
NCI-H23	1.07
NCI-H647	0.989
CAL-12T	1.03
NCI-H1651	0.878
EPLC-272H	1.05
NCI-H2228	0.898
NCI-H1355	1.16

Same assay, conditions: first compound 2.53 µM

Cell Line	relative viability
H3255	0.863
COR-L23	0.983
COR-L 105	0.66
LOU-NH91	0.527
ChaGo-K-1	0.939
NCI-H2405	0.972
LU99A	1.05
BEN	0.881
HARA	1.15
HCC-78	0.563
NCI-H322M	1.21
NCI-H2009	1.03
A-427	0.934
NCI-H441	0.508
NCI-H661	0.828
NCI-H1734	0.892
NCI-H460	1.11
NCI-H2347	1.08
201T	1.09
NCI-H1915	0.961
HCC-827	1.08
LXF-289	0.999
NCI-H23	1.13
NCI-H647	1.19
CAL-12T	1.05
NCI-H1651	0.992
NCI-H2228	1.09
NCI-H1355	1.17

Same assay, conditions: first compound 8 µM

Cell Line	relative viability
H3255	1.05
COR-L23	0.909
COR-L 105	0.489
LOU-NH91	0.502
ChaGo-K-1	1.03
NCI-H2405	0.875
HOP-62	0.798
LU99A	1.16
BEN	0.936
HARA	1.05
HCC-78	0.446
NCI-H322M	1.27
LCLC-97TM1	0.511
NCI-H2009	0.874
A-427	0.952
NCI-H441	0.447

Cell Line	relative viability
NCI-H661	0.761
NCI-H1734	0.914
NCI-H460	1.12
NCI-H2347	0.878
SK-LU-1	1.03
201T	1.09
NCI-H1915	0.995
HCC-827	1.01
LXF-289	0.955
NCI-H23	0.94
NCI-H647	0.889
CAL-12T	0.85
NCI-H1651	0.876
EPLC-272H	0.856
NCI-H2228	0.818
NCI-H1355	1.05
